# Data as given in patent publication US20230312529A1, “PYRIMIDINE SMALL-MOLECULE COMPOUND AND APPLICATION THEREOF” (WENZHOU MEDICAL UNIVERSITY, priority 2021, published 2023).
# Read-outs that look alike come from different tables or passages of the source.
# Legend:
# [1] = tested on: PDGFR signaling pathway related proteins in MNNG cells; assay: Western Blot of PDGFR signaling pathway protein phosphorylation; assay type: cell-based; details: 0.1, 0.2 and 0.4 uM, 48 hours
# Method: (§1) After pretreating the osteosarcoma cell line with the compound for 48 hours, the culture medium was sucked off, washed with PBS for 3 times, and the total protein was extracted after lysis. A phosphorylation level of the PDGFR signaling pathway related proteins was detected by Western Blot.
# [2] = tested on: PDGFR signaling pathway related proteins in MG63 cells; assay: as above; assay type: cell-based; details: 0.1, 0.2 and 0.4 uM, 48 hours
# Method: as §1
# PDGFRβ = PDGFRβ (Homo sapiens (Human), UniProt P09619); assay: Caliper Mobility Shift kinase inhibition test; assay type: biochemical; details: for inhibition at 0.1 µM: 100 nM
# Procedure, shortened: (§2)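 Caliper microfluidic mobility-shift kinase assay in HEPES pH 7.5 buffer with MgCl2, DTT and Brij-35; % inhibition = (max−conversion)/(max−min)×100, max being DMSO control, min low control. IC50 from 10 dilutions, duplicate wells, repeated 3 times.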
# JAK1 = JAK1 (Homo sapiens (Human), UniProt P23458); assay: Caliper Mobility Shift kinase inhibition test; assay type: biochemical; details: for inhibition at 0.1 µM: 100 nM
# Procedure, shortened: as §2
# FGFR2 = FGFR2 (Homo sapiens (Human), UniProt P21802); assay: Caliper Mobility Shift kinase inhibition test; assay type: biochemical; details: for inhibition at 0.1 µM: 100 nM
# Procedure, shortened: as §2
# osteosarcoma cells MG63 [3] = assay: Adhesion test of osteosarcoma cells on fibronectin; assay type: cell-based; details: 0.1, 0.2 and 0.4 uM, 48 hours, compared with positive drugs
# Method: (§3) Each well was dried, and added with 100 μL of 33% glacial acetic acid and the crystal violet was dissolved by shaking for 10 minutes. The absorbance was measured by a microplate reader at […], and the adhesion rate (%)=(OD value of tumor cells in the drug-added treated group−Hu FN OD value)/(OD value of untreated tumor cells−Hu FN OD value)×100%.
# osteosarcoma cells MNNG [4] = assay: Adhesion test of osteosarcoma cells on fibronectin; assay type: cell-based; details: 0.1, 0.2 and 0.4 uM, 48 hours, compared with positive drugs
# Method: as §3
# ALK = ALK (Homo sapiens (Human), UniProt Q9UM73); assay: Caliper Mobility Shift kinase inhibition test; assay type: biochemical
# Procedure, shortened: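 Microfluidic mobility-shift readout of substrate conversion in HEPES pH 7.5 buffer with Brij-35, MgCl2 and DTT (1.25× stock concentrations). Inhibition taken relative to DMSO (max) and low (min) controls; IC50 from 10-point dilutions in duplicate, repeated three times.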
# ABL1 = ABL1 (Homo sapiens (Human), UniProt P00519); assay: Caliper Mobility Shift kinase inhibition test; assay type: biochemical; details: 100 nM; read-out: inhibitory rate on ABL1
# PDGFRα = PDGFRα (Homo sapiens (Human), UniProt P16234); assay: Caliper Mobility Shift kinase inhibition test; assay type: biochemical; details: for inhibition at 0.1 µM: 100 nM
# osteosarcoma cells MG63 [5] = assay: Metastasis (scratch migration) test of osteosarcoma cells; assay type: cell-based; details: 0.1, 0.2 and 0.4 uM, compared with positive drugs
# Method: (§4) The cells were washed with sterile PBS for three times, and basal medium containing 2.5 μL of TCS was added respectively. Photographs were taken at 0 hour, 24 hours and 48 hours under an inverted microscope, and migration distances were measured with Imag J software.
# osteosarcoma cells MNNG [6] = assay: as above; assay type: cell-based; details: 0.1, 0.2 and 0.4 uM, compared with positive drugs
# Method: as §4
# Sequence of PDGFRβ (P09619 33-1106): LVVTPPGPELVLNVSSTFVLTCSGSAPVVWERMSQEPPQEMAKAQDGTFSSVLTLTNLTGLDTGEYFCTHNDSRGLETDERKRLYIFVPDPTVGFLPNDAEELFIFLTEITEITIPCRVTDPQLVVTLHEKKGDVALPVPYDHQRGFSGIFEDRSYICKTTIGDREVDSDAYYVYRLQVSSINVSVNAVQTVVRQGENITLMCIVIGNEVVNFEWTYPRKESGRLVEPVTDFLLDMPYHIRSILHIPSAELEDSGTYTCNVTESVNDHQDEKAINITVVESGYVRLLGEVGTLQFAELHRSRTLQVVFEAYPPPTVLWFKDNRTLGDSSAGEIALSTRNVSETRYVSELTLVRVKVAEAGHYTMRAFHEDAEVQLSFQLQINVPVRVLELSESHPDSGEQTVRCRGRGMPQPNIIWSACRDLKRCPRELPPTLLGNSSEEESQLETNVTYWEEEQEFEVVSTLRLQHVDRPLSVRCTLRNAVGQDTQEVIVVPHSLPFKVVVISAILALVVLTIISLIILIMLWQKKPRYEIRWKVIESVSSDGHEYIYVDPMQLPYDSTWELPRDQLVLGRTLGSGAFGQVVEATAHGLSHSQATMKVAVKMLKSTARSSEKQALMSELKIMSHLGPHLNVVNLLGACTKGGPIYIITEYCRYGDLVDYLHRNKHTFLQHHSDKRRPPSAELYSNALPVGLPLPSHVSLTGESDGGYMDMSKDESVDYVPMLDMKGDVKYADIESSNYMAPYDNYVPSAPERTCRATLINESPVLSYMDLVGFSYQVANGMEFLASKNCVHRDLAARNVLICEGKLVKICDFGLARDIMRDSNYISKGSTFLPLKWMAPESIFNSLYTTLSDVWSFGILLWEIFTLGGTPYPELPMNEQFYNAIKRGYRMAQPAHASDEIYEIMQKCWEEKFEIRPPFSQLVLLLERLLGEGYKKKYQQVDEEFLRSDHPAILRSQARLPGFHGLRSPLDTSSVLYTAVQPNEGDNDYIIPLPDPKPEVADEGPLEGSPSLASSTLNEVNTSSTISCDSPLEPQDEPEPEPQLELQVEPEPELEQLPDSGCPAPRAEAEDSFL
# Sequence of JAK1 (P23458 whole entry, species assumed): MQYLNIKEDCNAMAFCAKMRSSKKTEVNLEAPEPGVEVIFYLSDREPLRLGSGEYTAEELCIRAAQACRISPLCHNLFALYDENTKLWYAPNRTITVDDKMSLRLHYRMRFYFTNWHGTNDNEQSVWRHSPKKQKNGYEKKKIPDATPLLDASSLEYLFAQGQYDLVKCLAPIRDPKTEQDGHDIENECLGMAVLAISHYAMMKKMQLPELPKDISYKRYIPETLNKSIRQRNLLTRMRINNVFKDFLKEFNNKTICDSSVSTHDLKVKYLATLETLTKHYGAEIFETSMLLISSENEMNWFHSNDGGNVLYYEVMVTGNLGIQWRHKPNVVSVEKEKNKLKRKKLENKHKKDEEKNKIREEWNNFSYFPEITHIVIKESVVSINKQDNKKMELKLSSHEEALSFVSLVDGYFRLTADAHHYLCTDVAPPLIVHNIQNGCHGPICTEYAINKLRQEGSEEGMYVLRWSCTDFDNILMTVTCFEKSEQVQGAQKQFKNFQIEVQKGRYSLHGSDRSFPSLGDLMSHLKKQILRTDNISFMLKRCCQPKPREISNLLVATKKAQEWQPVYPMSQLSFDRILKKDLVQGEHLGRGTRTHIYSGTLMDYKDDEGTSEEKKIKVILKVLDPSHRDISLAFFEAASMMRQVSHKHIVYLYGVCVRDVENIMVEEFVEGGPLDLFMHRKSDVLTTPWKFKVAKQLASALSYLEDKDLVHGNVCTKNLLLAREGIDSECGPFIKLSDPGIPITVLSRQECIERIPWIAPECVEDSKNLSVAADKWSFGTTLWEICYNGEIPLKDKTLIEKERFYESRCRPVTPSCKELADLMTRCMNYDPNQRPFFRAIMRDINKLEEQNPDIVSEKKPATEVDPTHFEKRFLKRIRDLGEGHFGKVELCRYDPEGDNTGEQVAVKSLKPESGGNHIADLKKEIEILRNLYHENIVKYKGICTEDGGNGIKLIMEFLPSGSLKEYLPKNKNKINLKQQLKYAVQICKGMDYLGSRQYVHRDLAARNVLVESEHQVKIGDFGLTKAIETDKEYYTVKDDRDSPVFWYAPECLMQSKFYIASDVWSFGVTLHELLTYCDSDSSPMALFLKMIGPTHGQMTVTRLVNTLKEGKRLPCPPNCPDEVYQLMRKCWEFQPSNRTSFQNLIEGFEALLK
# Sequence of FGFR2 (P21802 22-821, species assumed): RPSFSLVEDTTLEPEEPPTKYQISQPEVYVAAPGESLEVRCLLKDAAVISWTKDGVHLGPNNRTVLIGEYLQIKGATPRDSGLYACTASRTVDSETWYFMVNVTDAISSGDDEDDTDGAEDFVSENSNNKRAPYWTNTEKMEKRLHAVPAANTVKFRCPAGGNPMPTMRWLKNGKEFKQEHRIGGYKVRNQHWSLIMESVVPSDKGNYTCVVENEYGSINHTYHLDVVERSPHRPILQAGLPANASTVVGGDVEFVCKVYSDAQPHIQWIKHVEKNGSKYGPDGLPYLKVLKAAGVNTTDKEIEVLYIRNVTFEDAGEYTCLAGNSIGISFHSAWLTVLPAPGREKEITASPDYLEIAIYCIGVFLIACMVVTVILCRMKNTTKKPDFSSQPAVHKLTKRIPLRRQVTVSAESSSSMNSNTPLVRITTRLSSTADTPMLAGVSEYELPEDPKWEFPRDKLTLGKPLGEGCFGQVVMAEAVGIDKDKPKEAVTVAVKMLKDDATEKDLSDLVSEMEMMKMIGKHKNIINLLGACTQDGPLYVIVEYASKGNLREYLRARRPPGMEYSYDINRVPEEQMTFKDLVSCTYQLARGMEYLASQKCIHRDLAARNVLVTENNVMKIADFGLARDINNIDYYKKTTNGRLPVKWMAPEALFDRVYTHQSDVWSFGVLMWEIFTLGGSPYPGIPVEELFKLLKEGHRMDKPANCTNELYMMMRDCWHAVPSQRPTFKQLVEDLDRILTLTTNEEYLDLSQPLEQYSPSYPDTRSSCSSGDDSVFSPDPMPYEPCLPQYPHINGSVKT
# Sequence of PDGFRα (P16234 24-1089): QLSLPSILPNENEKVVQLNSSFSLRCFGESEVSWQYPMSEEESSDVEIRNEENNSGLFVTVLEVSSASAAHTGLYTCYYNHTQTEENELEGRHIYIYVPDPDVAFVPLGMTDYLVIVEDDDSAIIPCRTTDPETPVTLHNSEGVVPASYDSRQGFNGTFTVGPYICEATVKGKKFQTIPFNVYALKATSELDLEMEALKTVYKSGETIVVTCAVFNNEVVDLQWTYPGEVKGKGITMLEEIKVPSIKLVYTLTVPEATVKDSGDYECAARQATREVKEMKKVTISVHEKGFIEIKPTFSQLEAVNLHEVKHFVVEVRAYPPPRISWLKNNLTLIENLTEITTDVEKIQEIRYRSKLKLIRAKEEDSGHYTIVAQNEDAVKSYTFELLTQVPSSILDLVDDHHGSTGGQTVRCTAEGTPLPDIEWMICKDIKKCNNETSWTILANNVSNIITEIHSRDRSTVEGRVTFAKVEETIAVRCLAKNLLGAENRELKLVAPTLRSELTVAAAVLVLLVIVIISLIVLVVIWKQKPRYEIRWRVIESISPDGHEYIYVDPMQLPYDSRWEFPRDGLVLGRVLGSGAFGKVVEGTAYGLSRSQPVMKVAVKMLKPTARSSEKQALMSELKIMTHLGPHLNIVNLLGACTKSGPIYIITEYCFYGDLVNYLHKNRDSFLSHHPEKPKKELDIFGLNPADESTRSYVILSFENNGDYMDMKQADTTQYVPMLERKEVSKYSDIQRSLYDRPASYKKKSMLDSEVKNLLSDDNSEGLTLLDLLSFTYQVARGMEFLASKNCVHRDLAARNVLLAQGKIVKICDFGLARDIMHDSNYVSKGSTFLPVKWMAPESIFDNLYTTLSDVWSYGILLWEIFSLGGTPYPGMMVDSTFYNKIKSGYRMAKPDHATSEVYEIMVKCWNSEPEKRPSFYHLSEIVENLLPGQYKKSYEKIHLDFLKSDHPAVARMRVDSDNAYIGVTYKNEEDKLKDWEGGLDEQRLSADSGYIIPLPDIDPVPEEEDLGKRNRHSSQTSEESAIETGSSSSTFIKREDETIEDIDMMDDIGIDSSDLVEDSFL
compound,measurement,setting,value
"CCN1CCN(c2ccc(Nc3ncc(C)c(Nc4ccc5cn[nH]c5c4)n3)cc2OC)CC1 [Compound 6i, N^2-(4-(4-ethylpiperazine-1-yl)-3-methoxyphenyl)-N^4-(1H-indazol-6-yl)-5-methylpyrimidine-2,4-diamine]",inhibition of phosphorylation of signaling pathway proteins,[1],strong dose-dependent inhibition
same,inhibition of phosphorylation of signaling pathway proteins,[2],strong dose-dependent inhibition
same,inhibitory activity on PDGFRβ (in words),PDGFRβ,significant inhibitory activities
same,inhibition at 0.1 µM,"PDGFRβ; average, read-out: Average % inhibition PDGFR β",> 100%
same,inhibition at 0.1 µM,"PDGFRβ; replicate 1, read-out: % inhibition 1 PDGFR β",101%
same,inhibition at 0.1 µM,"PDGFRβ; replicate 2, read-out: % inhibition 2 PDGFR β",103%
same,inhibition at 0.1 µM,PDGFRβ; read-out: inhibitory rate on PDGFR-β,99.8%
same,IC50,PDGFRβ; read-out: IC50 PDGFR-β,1.7 nM
same,IC50,JAK1,7.7 nM
same,inhibition at 0.1 µM,"JAK1; average, read-out: Average % inhibition JAK1",90.5%
same,inhibition at 0.1 µM,"JAK1; replicate 1, read-out: % inhibition 1 JAK1",91.7%
same,inhibition at 0.1 µM,"JAK1; replicate 2, read-out: % inhibition 2 JAK1",89.3%
same,IC50,FGFR2,27 nM
same,inhibition at 0.1 µM,"FGFR2; average, read-out: Average % inhibition FGFR2",83%
same,inhibition at 0.1 µM,"FGFR2; replicate 1, read-out: % inhibition 1 FGFR2",83.8%
same,inhibition at 0.1 µM,"FGFR2; replicate 2, read-out: % inhibition 2 FGFR2",82.1%
same,inhibitory activity on adhesion,osteosarcoma cells MG63 [3],strong dose-dependent inhibitory activity
same,inhibitory activity on adhesion,osteosarcoma cells MNNG [4],strong dose-dependent inhibitory activity
same,IC50,ALK,5 nM
same,inhibition at 0.1 µM,ABL1,95.3%
same,inhibitory activity on PDGFRα (in words),PDGFRα,significant inhibitory activities
same,inhibition at 0.1 µM,"PDGFRα; average, read-out: Average % inhibition PDGFR α",> 100%
same,inhibition at 0.1 µM,"PDGFRα; replicate 1, read-out: % inhibition 1 PDGFR α",98.9%
same,inhibition at 0.1 µM,"PDGFRα; replicate 2, read-out: % inhibition 2 PDGFR α",103%
same,inhibition at 0.1 µM,PDGFRα; read-out: inhibitory rate on PDGFR-α,97.5%
same,IC50,PDGFRα; read-out: IC50 PDGFR-α,2.7 nM
same,inhibitory activity on metastasis,osteosarcoma cells MG63 [5],strong dose-dependent inhibitory activity
same,inhibitory activity on metastasis,osteosarcoma cells MNNG [6],strong dose-dependent inhibitory activity
